Laboratory results as given in US9205046B2, “Enhanced stability of inverse thermal gelling composite hydrogels” (The Governing Council of the University of Toronto, priority 2005, dated 2015).
Entries after “also recorded” stand apart in the source; their conditions may differ.

Assays:
[1] = In vitro drug release from HAMC hydrogels and composites; type: physicochemical; details: for burst release from PLGA particles in composite versus free particles: composite 2:3 HMW HAMC
Protocol: Release profiles of each particle encapsulated drug were obtained by depositing approximately 150 mg of drug loaded 2:3 HMW HAMC into polypropylene sample tubes, warming to 37° C., and adding 600 μL warm aCSF. […] Particle loads were typically 30-40 mg PLGA per gram of composite. […] All sample aliquots were immediately frozen and stored at −20° C. until analysis. […] Each sample was thawed immediately prior to assay and clear supernatant analyzed for dissolved drug.

[2] = Characterization of drug loaded PLGA particles; type: physicochemical; details: laser diffraction or dynamic light scattering
Protocol: PLGA microparticle synthesis was optimized for each factor encapsulated and thus synthesis varied slightly for each factor, described below for EGF, dbcAMP, IgG and α-chymotrypsin. Microparticle size was determined by laser diffraction (Mastersizer 2000™, Malvern Instruments, Malvern, UK): nanoparticle size was determined by dynamic light scattering (Zetasizer Nano ZS™, Malvern Instruments). Encapsulation efficiency was defined as the fraction of drug detected per unit mass of particle compared to the theoretical maximum. Particle yield is the mass of recovered particulate PLGA adjusted for drug content, divided by the initial PLGA mass. Drug loading is the mass fraction of drug in the particles expressed as microgram of drug per milligram of particles.
EGF content was determined by degrading the PLGA in 1 M NaOH for 24 h at 37° C., centrifuging the resulting suspension and assaying the supernatant for total protein using the BCA assay.
dbcAMP content was determined by DCM/water solvent extraction. PLGA was dissolved in DCM and extracted 3×. Aqueous dbcAMP concentration was determined by UV absorbance at 273 nm on a Nanodrop ND-1000™ (Thermo Fisher Scientific).
Protein content was determined based on a method by Wong [Wong, H. M., Wang, J. J., and Wang, C, In Vitro Sustained Release of Human Immunoglobulin G from Biodegradable Microspheres. Ind. Eng. Chem. Res., 2001. 40: p. 933-948]. […]

[3] = system: mature blood vessels in the dorsal horns of the injured spinal cord; assay: Intrathecal FGF2 delivery with composite HAMC after compressive spinal cord injury, SMI-71 blood vessel count; type: in vivo, Sprague Dawley rats; details: rat, moderate compressive SCI at T2, 10 μl intrathecal composite 1:3 HMW HAMC with FGF2 PLGA nanoparticles, 28 days
Protocol: Physical hydrogel blends of hyaluronan (HA) and methyl cellulose (MC) were prepared in aCSF at 1 wt % 2600 kg/mol HA and 3 wt % 300 kg/mol MC as previously reported (1:3 HMW HAMC [M. D. Baumann, C. E. Kang, J. C. Stanwick, Y. Wang, H. Kim, Y. Lapitsky, and M. S. Shoichet, An injectable drug delivery platform for sustained combination therapy, J Control Release. (2009)]. Briefly, MC and HA were sequentially mechanically dispersed in aCSF and allowed to dissolve at 4° C. To form composite 1:3 HMW HAMC, slurries of particles were added together for a final concentration of 100 mg/mL. PLGA nanoparticles were prepared from a w/o/w double emulsion as previously described [[…]], either as blank nanoparticles or encapsulating FGF2.
All animal procedures were performed in accordance with the Guide to the Care and Use of Experimental Animals (Canadian Council on Animal Care) and protocols were approved by the Animal Care Committee of the Research Institute of the University Health Network. […] Blood vessels were then counted in the dorsal horns of the spinal cord (See FIG. 8). Statistical significance was determined by ANOVA followed by Tukey's post-hoc test.

[4] = Drug diffusivity in HMW HAMC; type: physicochemical; details: in 2:3 HMW HAMC
Description: The diffusivity of a given drug in HMW HAMC, D, was normalized to its diffusivity in water, Do, to determine the impact of HMW HAMC on molecular diffusion [N. A. Peppas, C. T. Reinhart, Solute diffusion in swollen membranes. 1. A new theory. J. Membr. Sci. 15 (3) (1983) 275-287. Approximations of D for NBQX, α-chymotrypsin, and IgG in HMW HAMC were estimated according to the one dimensional, unidirectional, thin film approximation for non-swelling samples at short times [J. Crank, The Mathematics of Diffusion, Clarendon Press, Oxford, 1956.]. Normalized diffusion coefficients were then determined with respect to previously reported values of Do according to:
[formula] Where Mt/M∞ is the cumulative mass of drug detected at time, t, divided by the total mass released and l is the sample thickness.
Approximately 100 mg of HAMC with a drug loading of 100-1000 μg/mL was deposited into a cylindrical sample tube to yield a gel with thickness of 0.3 cm and one exposed surface. Samples were warmed to 37° C. and combined with 900 μL of warm aCSF. The buffer was sampled with total replacement at 0.5, 1, 2, and 5 hours and analyzed and described below.

Molecule	duration of in vitro release of PLGA particle encapsulated drug ([1]; PLGA particles dispersed in composite 2:3 HMW HAMC) [days]	burst release from PLGA particles in composite versus free particles [1]	Particle Size (μm) [2] [μm]	release mechanism of dissolved drug ([1]; dissolved in 2:3 HMW HAMC)	time to complete in vitro release of dissolved drug ([1]; dissolved in 2:3 HMW HAMC, aCSF, 37 °C) [days]	mature blood vessels in the dorsal horns (angiogenesis) [3]	normalized diffusion coefficient [4]
CCCC(=O)Nc1ncnc2c1ncn2[C@@H]1O[C@@H]2COP(=O)([O-])O[C@H]2[C@H]1OC(=O)CCC.[Na+] [dbcAMP, N^6,2′-O-dibutyryladenosine 3′,5′-cyclic monophosphate sodium salt, reference compound]	28	reduction in burst release	37 ± 14	–	–	–	–
FGF-2: Recombinant human basic fibroblast growth factor	–	–	–	diffusion limited	≤ 4	results in angiogenesis; also recorded: enhanced blood vessels	~0.1
EGF: Recombinant human epidermal growth factor	–	atypical behaviour	10 ± 2	–	–	–	–
2,3-Dioxo-6-nitro-1,2,3,4-tetrahydrobenzo[f]quinoxaline-7-sulfonamide disodium salt [NBQX, reference compound]	–	–	–	diffusion limited	–	–	~0.1
